Laboratory results: ChEMBL document CHEMBL5036339, “Synthesis and biological evaluation of indole-based peptidomimetics as antibacterial agents against Gram-positive bacteria” (Eur J Med Chem, 2021)
Values after ≈ are worked out from the molar mass of the structure shown.

Columns and labels:
Staphylococcus aureus [1] = test: Antibacterial activity against Staphylococcus aureus ATCC29213 assessed as reduction in bacterial growth; type: functional
Staphylococcus aureus [2] = test: Antibacterial activity against methicillin-resistant Staphylococcus aureus N315 assessed as reduction in bacterial growth; type: functional
Staphylococcus aureus [3] = test: Antibacterial activity against methicillin-resistant Staphylococcus aureus NCTC 10442 assessed as reduction in bacterial growth; type: functional
Escherichia coli = test: Antibacterial activity against Escherichia coli ATCC25922 assessed as reduction in bacterial growth; type: functional
[4] = Hemolytic activity in rabbit erythrocytes assessed as concentration required to cause 50% hemolysis; type: ADME, cell-based, Oryctolagus cuniculus, Erythrocyte

SMILES	MIC (Staphylococcus aureus [1])	MIC (Staphylococcus aureus [2])	MIC (Staphylococcus aureus [3])	MIC (Escherichia coli)	HC50 [4]
CC(C)=CCC/C(C)=C/Cn1cc(CC(=O)N[C@@H](CCCNC(=N)N)C(=O)N[C@@H](CCCNC(=N)N)C(N)=O)c2ccccc21	3.12 µg/mL (≈ 5.02 µM)	3.12 µg/mL (≈ 5.02 µM)	3.12 µg/mL (≈ 5.02 µM)	50 µg/mL (≈ 80.3 µM)	> 200 µg/mL
CC(C)=CCC/C(C)=C/Cn1cc(CC(=O)NCCCN2CCCC2)c2ccccc21	6.25 µg/mL (≈ 14.8 µM)	6.25 µg/mL (≈ 14.8 µM)	6.25 µg/mL (≈ 14.8 µM)	50 µg/mL (≈ 119 µM)	47.6 µg/mL
CC(C)=CCC/C(C)=C/Cn1cc(CC(=O)NCCCN)c2ccccc21	12.5 µg/mL (≈ 34 µM)	6.25 µg/mL (≈ 17 µM)	12.5 µg/mL (≈ 34 µM)	12.5 µg/mL (≈ 34 µM)	178 µg/mL
COC(=O)[C@H](CCCNC(=N)N)NC(=O)Cc1cn(C/C=C(\C)CCC=C(C)C)c2ccccc12	3.12 µg/mL (≈ 6.49 µM)	3.12 µg/mL (≈ 6.49 µM)	3.12 µg/mL (≈ 6.49 µM)	12.5 µg/mL (≈ 26 µM)	58.8 µg/mL
CC(C)=CCC/C(C)=C/Cn1cc(CC(=O)N[C@@H](CCCNC(=N)N)C(N)=O)c2ccccc21	3.12 µg/mL (≈ 6.7 µM)	3.12 µg/mL (≈ 6.7 µM)	3.12 µg/mL (≈ 6.7 µM)	25 µg/mL (≈ 53.6 µM)	119 µg/mL
COC(=O)[C@H](Cc1c[nH]cn1)NC(=O)Cc1cn(C/C=C(\C)CCC=C(C)C)c2ccccc12	> 50 µg/mL	> 50 µg/mL	> 50 µg/mL	> 100 µg/mL	> 200 µg/mL
NC[C@H]1O[C@H](O[C@H]2[C@H](O)[C@@H](O[C@H]3O[C@H](CO)[C@@H](O)[C@H](N)[C@H]3O)[C@H](N)C[C@@H]2N)[C@H](O)[C@@H](O)[C@@H]1O [KANAMYCIN]	–	–	–	6.25 µg/mL (≈ 12.9 µM)	–
COC(=O)[C@H](CCCNC(=N)N)NC(=O)[C@H](CCCNC(=N)N)NC(=O)[C@H](CCCNC(=N)N)NC(=O)Cc1cn(C/C=C(\C)CCC=C(C)C)c2ccccc12	3.12 µg/mL (≈ 3.94 µM)	1.56 µg/mL (≈ 1.96 µM)	1.56 µg/mL (≈ 1.96 µM)	50 µg/mL (≈ 63 µM)	> 200 µg/mL
COC(=O)[C@H](CCCNC(=N)N)NC(=O)[C@H](CCCNC(=N)N)NC(=O)Cc1cn(C/C=C(\C)CCC=C(C)C)c2ccccc12	3.12 µg/mL (≈ 4.9 µM)	3.12 µg/mL (≈ 4.9 µM)	1.56 µg/mL (≈ 2.45 µM)	50 µg/mL (≈ 78.4 µM)	> 200 µg/mL
CCOC(=O)Cc1cn(C/C=C(\C)CCC=C(C)C)c2ccccc12	> 50 µg/mL	> 50 µg/mL	> 50 µg/mL	> 100 µg/mL	> 200 µg/mL
COC(=O)[C@H](CCCNC(=N)N)NC(=O)Cc1cn(CC=C(C)C)c2ccccc12	50 µg/mL (≈ 121 µM)	50 µg/mL (≈ 121 µM)	50 µg/mL (≈ 121 µM)	> 100 µg/mL	> 200 µg/mL
CC(C)=CCn1cc(CC(=O)NCCCN)c2ccccc21	> 50 µg/mL	> 50 µg/mL	> 50 µg/mL	> 100 µg/mL	> 200 µg/mL
CC(C)=CCC/C(C)=C/Cn1cc(CC(=O)NCCN(CCN)CCN)c2ccccc21	1.56 µg/mL (≈ 3.55 µM)	1.56 µg/mL (≈ 3.55 µM)	1.56 µg/mL (≈ 3.55 µM)	25 µg/mL (≈ 56.9 µM)	208 µg/mL
CC(C)=CCC/C(C)=C/Cn1cc(CC(=O)NCCCN(C)C)c2ccccc21	6.25 µg/mL (≈ 15.8 µM)	3.12 µg/mL (≈ 7.9 µM)	6.25 µg/mL (≈ 15.8 µM)	12.5 µg/mL (≈ 31.6 µM)	55.1 µg/mL
CCCCCCCCCCn1cc(CC(=O)NCCN(CCN)CCN)c2ccccc21	1.56 µg/mL (≈ 3.52 µM)	1.56 µg/mL (≈ 3.52 µM)	1.56 µg/mL (≈ 3.52 µM)	12.5 µg/mL (≈ 28.2 µM)	95.9 µg/mL
CC(C)=CCn1cc(CC(=O)N[C@@H](CCCNC(=N)N)C(N)=O)c2ccccc21	> 50 µg/mL	> 50 µg/mL	> 50 µg/mL	> 100 µg/mL	> 200 µg/mL
C=CCCCCCn1cc(CC(=O)NCCN(CCN)CCN)c2ccccc21	12.5 µg/mL (≈ 31.3 µM)	12.5 µg/mL (≈ 31.3 µM)	25 µg/mL (≈ 62.6 µM)	> 50 µg/mL	140 µg/mL
CCOC(=O)Cc1c[nH]c2ccccc12	> 50 µg/mL	> 50 µg/mL	> 50 µg/mL	> 100 µg/mL	> 200 µg/mL
CCCCN(CCCC)CCCNC(=O)Cc1cn(C/C=C(\C)CCC=C(C)C)c2ccccc12	3.12 µg/mL (≈ 6.51 µM)	3.12 µg/mL (≈ 6.51 µM)	3.12 µg/mL (≈ 6.51 µM)	> 100 µg/mL	72.3 µg/mL
